# Tests used:
# [1] = system: CLL-B cells; assay: Caspase inhibitor effect on human CD40L transfection of CLL-B cells; format: cell-based; conditions: 100 μm inhibitor in culture medium, 24 hour post transfection
# Method: Caspase inhibitor effect on human CD40L transfection of CLL-B cells was investigated. CLL-B cells (1.4×10^8 cells/mL) were electroporated by four 400 μs pulses at indicated electric fields in the present of DNA plasmid (200 μg/mL) coding for hCD40L. Following a 20 minute incubation at 37° C., cells were cultured in medium either with (+I) or without (−I) caspase inhibitor (Boc-Asp-FMK, 100 μm). hCD40L, expression was analyzed 24 hour post transfection by flow cytometry with antibodies against hCD40L conjugate-labeled with Cychrome.
# [2] = system: platelets; assay: Collagen stimulation of calcein-loaded platelets; format: cell-based; conditions: platelets electroporated with calcein, collagen stimulus
# Method: Platelets were treated in accordance with the present invention in the presence of a marker dye, calcein, then stimulated with increasing doses of collagen, a physiologic stimulant for platelets. […] FIGS. 24A and 24B show platelets that had been washed but otherwise not treated (Untreated[N]}), platelets that were incubated with the fluorescent marker calcein (calcein control) and platelets electroporated with calcein (electroporated) were subsequently stimulated with the physiologic stimulus, collagen.
# [3] = system: Human platelets; assay: Activity (secretion or aggregation) of loaded platelets; format: cell-based
# Method: Efficacy is expressed as the percentage of cells that took up fluorescent markers (calcein or albumin+fluorescein). “Activity” was determined by measuring biologic functions, such as secretion or aggregation (for MaxCyte's application, any detectable level will probably suffice). “Survival” is the circulating half-life in an animal model.
# [4] = system: Human platelets; assay: Loading of platelets with fluorescent marker by flow electroporation; format: cell-based
# Method: Efficacy is expressed as the percentage of cells that took up fluorescent markers (calcein or albumin+fluorescein). “Activity” was determined by measuring biologic functions, such as secretion or aggregation (for MaxCyte's application, any detectable level will probably suffice). “Survival” is the circulating half-life in an animal model. FIGS. 23A and 23B show scatter plots from a flow cytometer. Control (FIG. 23A) was incubated in a dilute solution of the fluorescent dye, calcein, for approximately 1 hour. The test sample (FIG. 23B) was suspended in the same dye solution, but was run through the electroporation device. Similar results were obtained using fluoresceinated albumin.
# [5] = Organ distribution of calcein-loaded platelets; format: in vivo, rabbit; conditions: rabbits, organs harvested within 1 half-life
# Excerpt: In another series of studies, platelets loaded with calcein were infused into the rabbits and major organs harvested within 1 half-life.
# [6] = target: hemoglobin (Homo sapiens, UniProt P68871); conditions: cited from earlier work
# [7] = system: resting Lymphocytes; assay: Electroporation (transfection) of resting lymphocytes; format: cell-based, human; conditions: Static
# Method: Primary lymphocytes were suspended in B&K buffer (125 mM KCl, 15 mM NaCl, 1.2 mM MgCl2, 3 mM glucose, 25 mM Hepes, pH 7.4) cell concentration was set from 1×10^7 cells/mL to 6×10^8 cells/mL together with DNA plasmid from 50 μg/mL to 1 mg/mL. DNA concentration was 50 ug/mL–1000 ug/mL. Electroporation was performed at 2.3 kV/cm, 400 μs, 4 pulses for small volume experiments (15 μl) or 2.2 kV/cm, 1.6 ms, 1 pulse for large volume experiments (0.5 ml–2 ml) was performed under static conditions at room temperature. […] Cells were cultured in culture medium for various periods (up to 72 hours) and the transfection efficiency was analyzed.
# Seven transgenes (Ds-Red, eGFP, βGal, hEndostatin, HEPO, hIFNα, hIL-2) were tested in these experiments. […] When pCMV-Ds-Red or pCMV-EGFP was used, the percentage of the fluorescent cells was counted, by FACS or by manual counting under phase contrast and fluorescence microscope, as the transfection efficiency. […] When pCMV-Endostatin was used, the Endostatin concentration in the supernatant was analyzed by ELISA kit from Cytimmune Sciences, Inc. (College Park, Md.). For pCMV-EPO electroporation, the erythropoietin concentration in the supernatant was analyzed by R&D ELISA kit (Minneapolis, Minn.). […]
# hemoglobin, sequence (P68871 2-147 limits assumed): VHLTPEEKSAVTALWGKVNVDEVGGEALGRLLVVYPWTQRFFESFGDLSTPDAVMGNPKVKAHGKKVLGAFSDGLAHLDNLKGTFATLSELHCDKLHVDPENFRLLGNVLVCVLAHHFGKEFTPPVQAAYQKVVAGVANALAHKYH
# hemoglobin, sequence (P69905 2-142 partner limits assumed): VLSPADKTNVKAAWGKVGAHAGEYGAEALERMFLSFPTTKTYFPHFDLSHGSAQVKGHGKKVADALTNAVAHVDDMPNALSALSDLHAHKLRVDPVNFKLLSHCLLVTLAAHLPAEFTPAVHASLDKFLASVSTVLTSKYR
compound,measurement,setting,value
CC(C)(C)OC(=O)NC(CC(=O)O)C(=O)CF (stereo not drawn) [Boc-Asp-FMK],hCD40L expression level,[1],improves
same,hCD40L expression: percentage of expressed cells,[1],improves
"O=C(O)CN(CC(=O)O)Cc1cc2c(cc1O)Oc1cc(O)c(CN(CC(=O)O)CC(=O)O)cc1C21OC(=O)c2ccccc21 [CALCEIN, calcein]",collagen-stimulated Calcein release,[2],did not release the dye
same,Activity (% of control),[3],40–60 % of control
same,Efficacy (% of cells with marker),[4],80+ % of cells with marker
same,organ distribution of loaded platelets,[5],found in multiple organs
"O=P(O)(O)O[C@H]1[C@H](OP(=O)(O)O)[C@@H](OP(=O)(O)O)[C@H](OP(=O)(O)O)[C@@H](OP(=O)(O)O)[C@H]1OP(=O)(O)O [IHP, inositol hexaphosphate]",affinity to hemoglobin relative to DPG,[6]; higher than DPG,1000 fold
same,P50 of hemoglobin,"[6]; pH 7.4, 37° C.",≤ 96.4 mm Hg
βGal,Efficiency (% of + cells),[7],15%
same,Viability,[7],40%

# — patent US7186559B2, “Apparatus and method for electroporation of biological samples” (Maxcyte, Inc., priority 2001, dated 2007)
